We go through 11 compounds from PubChem BioAssay (NCI).

The structures appear in SMILES notation.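 Cells were grown in 96-well plates and exposed to each compound for 48 hours at five concentrations; endpoints were interpolated linearly between bracketing concentrations, or set to the highest concentration if not reached. TGI denotes the concentration required for complete inhibition of growth.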 Where only a bound is given, the exact number is not on record here.

Some test systems named below: HOP-62 NSCLC; ACHN renal; UO-31 renal; COLO 205 colon; HCC-2998 colon; A549 NSCLC; EKVX NSCLC; SNB-75 CNS; SK-MEL-2 melanoma; HS 578T breast.
What all share (assay): NCI anticancer screen, dose series, 48 h

In the case of `CC(C)=CCC/C(C)=C/CC/C(C)=C/CC/C(=C/CC/C(C)=C\CC/C(C)=C/CC/C(C)=C/CC/C(C)=C/Cc1cc(O)ccc1O)CO`, the TGI in the experiment with HOP-62 NSCLC was 41.3 µM; in the experiment with ACHN renal, 34.9 µM; in the experiment on UO-31 renal, 21.4 µM; with COLO 205 colon, 7.87 µM; in the experiment with HCC-2998 colon it was greater than 42.1 µM; in the experiment with A549 NSCLC, 22.6 µM. The TGI in the experiment on EKVX NSCLC came to 33.5 µM; in the experiment on SNB-75 CNS it was 12.7 µM; with SK-MEL-2 melanoma, 11.5 µM; in the experiment with HS 578T breast it was 8.44 µM.
Regarding `c1c[nH]c(C23C4C5C6C4C2C6C53)n1` (stereo not given), the TGI in the experiment on HOP-62 NSCLC, in the experiment with ACHN renal, with UO-31 renal, in the experiment with COLO 205 colon, in the experiment on HCC-2998 colon and in the experiment on A549 NSCLC was greater than 100 µM in each case. The TGI in the experiment with EKVX NSCLC, in the experiment with SNB-75 CNS, in the experiment on SK-MEL-2 melanoma and in the experiment with HS 578T breast was greater than 100 µM throughout.
As to `COC(=O)[C@H](Cc1c[nH]c2ccccc12)NC(=O)c1ccc(CNC(=O)/C=C/c2cccc(Oc3ccccc3)c2)cc1`, the TGI with HOP-62 NSCLC, with ACHN renal, in the experiment with UO-31 renal, in the experiment on COLO 205 colon, in the experiment with HCC-2998 colon and in the experiment on A549 NSCLC was greater than 100 µM each time. Moreover, the TGI in the experiment with EKVX NSCLC was greater than 100 µM; with SNB-75 CNS, greater than 100 µM; with SK-MEL-2 melanoma, 82.8 µM; with HS 578T breast, greater than 100 µM.
In the case of `CN(C)CCCn1nc(N)c2nc3cc(Cl)ccc3nc21`, the TGI in the experiment with HOP-62 NSCLC was greater than 100 µM; in the experiment on ACHN renal it was greater than 100 µM; with UO-31 renal it was greater than 92.6 µM; in the experiment with COLO 205 colon, greater than 100 µM; in the experiment with HCC-2998 colon, greater than 100 µM; in the experiment with A549 NSCLC, greater than 100 µM. For the same compound, the TGI in the experiment with EKVX NSCLC was greater than 100 µM; with SNB-75 CNS, greater than 100 µM; in the experiment with SK-MEL-2 melanoma, greater than 75.7 µM; with HS 578T breast, greater than 100 µM.
Take `CCCCCCCCCCCCOCCCOP(=O)([O-])OCC[N+](C)(C)C`: the TGI in the experiment on HOP-62 NSCLC was greater than 100 µM; with ACHN renal, greater than 80.2 µM; in the experiment with UO-31 renal it was greater than 89.5 µM; in the experiment with COLO 205 colon, 31.7 µM; with HCC-2998 colon, 24.9 µM; in the experiment with A549 NSCLC it was greater than 100 µM. Also, the TGI with EKVX NSCLC was greater than 100 µM; with SNB-75 CNS, 71.1 µM; with SK-MEL-2 melanoma, greater than 100 µM; in the experiment on HS 578T breast, 57.7 µM.
`CCOC(=O)CNc1nc(=O)c2c(=O)oc(Cl)cc2o1`: the TGI with HOP-62 NSCLC is 53.3 µM; in the experiment on ACHN renal, 26.3 µM; in the experiment on UO-31 renal, 25.4 µM; in the experiment on COLO 205 colon, greater than 100 µM; in the experiment on HCC-2998 colon, 29 µM; in the experiment with A549 NSCLC it was 40.6 µM. The TGI in the experiment on EKVX NSCLC was 29.6 µM; in the experiment with SNB-75 CNS it was 24.7 µM; in the experiment on SK-MEL-2 melanoma it was 44.5 µM; in the experiment on HS 578T breast, 45.1 µM.
In the case of `CCCCCCCCCCCCCCCC(=O)N(CCCCCCCCCCC(=O)O)CC(O)C(O)C(OC1OC(CO)C(O)C(O)C1O)C(O)CO` (stereo not given), the TGI was 75.8 µM with HOP-62 NSCLC; greater than 100 µM in the experiment with ACHN renal; greater than 100 µM with UO-31 renal; 32.6 µM in the experiment on COLO 205 colon; 49.5 µM in the experiment on HCC-2998 colon; greater than 100 µM in the experiment on A549 NSCLC. The TGI in the experiment on EKVX NSCLC is greater than 100 µM; in the experiment on SNB-75 CNS, greater than 100 µM; with SK-MEL-2 melanoma it was 43.5 µM; in the experiment with HS 578T breast it was greater than 100 µM.
Regarding `CCN(CC)CCNC(=O)c1cn2c(ccc3sc4ccccc4c(=O)c32)n1`, the TGI is 21.4 µM in the experiment on HOP-62 NSCLC; 18.6 µM with ACHN renal; 21 µM in the experiment on UO-31 renal; 21.1 µM with COLO 205 colon; 24.3 µM in the experiment with HCC-2998 colon; 21 µM with A549 NSCLC. Also, the TGI in the experiment on EKVX NSCLC came out at 35.3 µM; with SNB-75 CNS, 32.6 µM; in the experiment with SK-MEL-2 melanoma, 38 µM; in the experiment on HS 578T breast, 34.6 µM.
`COc1ccc(C2SCC(=O)N2NC(=O)c2ccc(NC(C)=O)cc2)cc1` (stereo not given): the TGI with HOP-62 NSCLC, in the experiment on ACHN renal, in the experiment on UO-31 renal, with COLO 205 colon, with HCC-2998 colon and in the experiment with A549 NSCLC was greater than 100 µM each time. Further, the TGI with EKVX NSCLC, in the experiment with SNB-75 CNS, with SK-MEL-2 melanoma and in the experiment on HS 578T breast was greater than 100 µM each time.
On to `O=c1c(=O)c2c(Br)sc(Br)c2c1=O`, for which the TGI in the experiment with HOP-62 NSCLC is greater than 100 µM; in the experiment on ACHN renal it was 44.7 µM; with UO-31 renal it was 51.4 µM; in the experiment with COLO 205 colon, 38.6 µM; with HCC-2998 colon it was greater than 100 µM; with A549 NSCLC, greater than 100 µM. For the same compound, the TGI was 42.8 µM with EKVX NSCLC, 75.2 µM in the experiment with SNB-75 CNS, 41.1 µM with SK-MEL-2 melanoma and greater than 100 µM in the experiment with HS 578T breast.
`O=C1CC(c2cccc(Br)c2)n2cccc21` (stereo not given): the TGI in the experiment on HOP-62 NSCLC was greater than 100 µM; in the experiment with ACHN renal, greater than 100 µM; in the experiment with UO-31 renal it was 66.9 µM; with COLO 205 colon it was greater than 100 µM; in the experiment on HCC-2998 colon, greater than 100 µM; in the experiment with A549 NSCLC, greater than 100 µM. Moreover, the TGI was greater than 100 µM in the experiment with EKVX NSCLC, greater than 100 µM in the experiment on SNB-75 CNS, 95.3 µM in the experiment with SK-MEL-2 melanoma and greater than 100 µM with HS 578T breast.
